Data as given in the Deep4Chem optical property database.
One block for each compound: values may come before it.

Assay: photoluminescence quantum yield (fraction); solvent given as SMILES

Structure (SMILES): CN(C)c1ccc(C2=Cc3c4ccccc4cc[n+]3[B-](F)(F)O2)cc1
- photoluminescence quantum yield (in C1CCOC1): 0.658
- photoluminescence quantum yield (in C1COCCO1): 0.863
- photoluminescence quantum yield (in CC1CCCCC1): 0.979
- photoluminescence quantum yield (in CC#N): 0.638
- photoluminescence quantum yield (in CCOC(C)=O): 0.663
- photoluminescence quantum yield (in CCOCC): 0.848
- photoluminescence quantum yield (in CN(C)C=O): 0.561
- photoluminescence quantum yield (in CO): 0.499
- photoluminescence quantum yield (in COC(C)=O): 0.587
- photoluminescence quantum yield (in ClC(Cl)Cl): 0.743

Structure (SMILES): c1ccc2c(c1)-c1ccccc1C21c2ccccc2-c2c1c1c3ccccc3ccc1c1ccccc21
- photoluminescence quantum yield (in Cc1ccccc1): 0.61

- photoluminescence quantum yield (in ClCCl): 0
Structure (SMILES): O=[N+]([O-])c1ccc(-c2nc(/C=C/c3ccc(Cl)cc3)c(/C=C/c3ccc(Cl)cc3)[nH]2)cc1

- photoluminescence quantum yield (in CC(=O)N(C)C): 0.0578
Structure (SMILES): C#Cc1ccc(/C2=c3\cc/c([nH]3)=C(\c3ccc(C#C)cc3)C3=N/C(=C(/c4cc(C(C)(C)C)cc(C(C)(C)C)c4)c4cc(c[nH]4)/C(c4cc(C(C)(C)C)cc(C(C)(C)C)c4)=C4/C=CC2=N4)C=C3)cc1

Structure (SMILES): CCC1=C(C)C2=C(c3c(C)cc(C)nc3-c3cccs3)c3c(C)c(CC)c(C)n3[B-](F)(F)[N+]2=C1C
- photoluminescence quantum yield (in C1CCCCC1): 0.53
- photoluminescence quantum yield (in C1CCOC1): 0.46
- photoluminescence quantum yield (in C1COCCO1): 0.49
- photoluminescence quantum yield (in CC#N): 0.45
- photoluminescence quantum yield (in CCCCCC): 0.52
- photoluminescence quantum yield (in CCO): 0.47
- photoluminescence quantum yield (in CCOC(C)=O): 0.47
- photoluminescence quantum yield (in CCOCC): 0.5
- photoluminescence quantum yield (in CN(C)C=O): 0.44
- photoluminescence quantum yield (in CS(C)=O): 0.44
- photoluminescence quantum yield (in Cc1ccccc1): 0.49
- photoluminescence quantum yield (in ClC(Cl)(Cl)Cl): 0.5
- photoluminescence quantum yield (in ClC(Cl)Cl): 0.49

- photoluminescence quantum yield (in ClC(Cl)Cl): 0.72
Structure (SMILES): Cc1cc(C)c(C2=C3C=CC4=[N+]3[B-]3(Oc5ccccc54)Oc4ccccc4-c4ccc2n43)c(C)c1 (centres undefined)

- photoluminescence quantum yield (in ClC(Cl)Cl): 0.56
Structure (SMILES): Clc1ccc(-c2nc(-c3ccccc3)c(N(c3ccccc3)c3ccccc3)s2)cc1

- photoluminescence quantum yield (in C1CCOC1): 0.003
- photoluminescence quantum yield (in CC#N): 0.003
- photoluminescence quantum yield (in CCO): 0.048
- photoluminescence quantum yield (in CS(C)=O): 0.01
Structure (SMILES): CCOC(=O)c1ccccc1-c1c2ccc(=O)cc-2oc2cc(OC(=O)[C@H](CO[Si](C)(C)C(C)(C)C)NC(=O)OC(C)(C)C)ccc12

Structure (SMILES): CCc1c(C)c2n(c1C)[B-](F)(F)[N+]1=C(c3ccc[nH]3)c3ccccc3C1=C2
- photoluminescence quantum yield (in C1CCOC1): 0.71
- photoluminescence quantum yield (in CC#N): 0.74
- photoluminescence quantum yield (in CCCCCC): 0.82
- photoluminescence quantum yield (in CO): 0.65
- photoluminescence quantum yield (in Cc1ccccc1): 0.72
- photoluminescence quantum yield (in ClCCl): 0.66

- photoluminescence quantum yield (in C1COCCO1): 0.63
Structure (SMILES): c1ccc(-c2nc(-c3ccc(-c4nc(-c5ccccc5)c(-c5ccccc5)o4)cc3)oc2-c2ccccc2)cc1

- photoluminescence quantum yield (in CO): 0.07
- photoluminescence quantum yield (in O): 0.004
Structure (SMILES): CN(C)c1ccc2c(c1)[Si](C)(C)C1=CC(=[N+](C)C)C=CC1=C2C#Cc1ccccc1

- photoluminescence quantum yield (in ClCCl): 0.00173
Structure (SMILES): COc1cc2c(cc1OC)C1=C[C@H](c3ccccc3)C3(C(C#N)=C(C#N)N1CC2)c1ccccc1-c1ccccc13

- photoluminescence quantum yield (in O): 0.56
Structure (SMILES): Cc1cc(/N=C/c2cc(S(=O)(=O)[O][Na])ccc2O)c(/N=C/c2cc(S(=O)(=O)[O][Na])ccc2O)cc1C

- photoluminescence quantum yield (in ClCCl): 0.16
Structure (SMILES): CCCCCCN1C(=O)c2cccc3c(-c4ccc(-c5cc(-c6ccccc6)nn5-c5ccccc5)s4)ccc(c23)C1=O

- photoluminescence quantum yield (in CO): 0.1
Structure (SMILES): COc1ccc(OC)c(C(C)=O)c1

Structure (SMILES): C1=C(c2ccccc2)C2=Nc3c(-c4ccccc4)cc4n3[B-]3(Oc5ccccc5C1=[N+]23)Oc1ccccc1-4 (centres undefined)
- photoluminescence quantum yield (in Cc1ccccc1): 0.51

- photoluminescence quantum yield (in CC#N): 0.33
Structure (SMILES): Oc1cccc2c(C3(O)C4CC5CC(C4)CC3C5)cccc12 (centres undefined)

- photoluminescence quantum yield (in ClC(Cl)Cl): 0.1
Structure (SMILES): COc1cc(OC)c2c(c1)c1cc3oc(=O)cc(C)c3cc1c1cc(OC)cc(OC)c12

- photoluminescence quantum yield (in ClC(Cl)Cl): 0.74
Structure (SMILES): CCCN1c2ccccc2Sc2cc(/C=C\c3cc(=O)oc4cc(O)ccc34)ccc21

Structure (SMILES): CC(C)(C)c1ccc2c(c1)B1c3cc(C(C)(C)C)ccc3Oc3cc(-n4c5ccccc5c5c6c(c7ccccc7n6-c6ccccc6)c6c(c7ccccc7n6-c6ccccc6)c54)cc(c31)O2
- photoluminescence quantum yield (in Cc1ccccc1): 0.99

- photoluminescence quantum yield (in C1CCOC1): 0.005
Structure (SMILES): O=C(c1ccc(N2c3ccccc3Sc3ccccc32)cc1)c1ccc2sc3ccccc3c2c1
- photoluminescence quantum yield (in c1ccc2c(c1)c1ccccc1n2-c1ccc(-c2ccc(-n3c4ccccc4c4ccccc43)cc2)cc1): 0.768

- photoluminescence quantum yield (in ClCCl): 0.874
Structure (SMILES): CC(C)(C)C1=CC2=C3C(=CC=C4C=CC(c5cc6c7cc(-c8ccc9ccc%10cc(C(C)(C)C)cc%11ccc8c9c%10%11)ccc7c(-c7ccc8ccc9cc(C(C)(C)C)cc%10ccc7c8c9%10)cc6c6cc(-c7ccc8ccc9cc(C(C)(C)C)cc%10ccc7c8c9%10)ccc56)=C(C=C2)C43)C1 (centres undefined)

Structure (SMILES): O=P1(c2ccccc2)C(c2cc(C(F)(F)F)cc(C(F)(F)F)c2)=Cc2c3ccc4cccc5ccc(c6cc(-c7ccccc7)n1c26)c3c45 (centres undefined)
- photoluminescence quantum yield (in C1CCCCC1): 0.54
- photoluminescence quantum yield (in C1CCOC1): 0.61
- photoluminescence quantum yield (in C1COCCO1): 0.62
- photoluminescence quantum yield (in CC#N): 0.63
- photoluminescence quantum yield (in CC(C)=O): 0.64
- photoluminescence quantum yield (in CO): 0.65
- photoluminescence quantum yield (in Cc1ccccc1): 0.66
- photoluminescence quantum yield (in ClC(Cl)Cl): 0.6
- photoluminescence quantum yield (in ClCCl): 0.61

- photoluminescence quantum yield (in ClCCl): 0.11
Structure (SMILES): CC(C)c1cccc(C(C)C)c1N1C(=O)c2cccc3c(Oc4ccc(C(C)(C)C)cc4)ccc(c23)C1=O

- photoluminescence quantum yield (in CC#N): 0.002
Structure (SMILES): COc1ccc(-c2nc3c([nH]2)=C2C=C(Cl)S[C@@]2(C)[C@]2(C)SC(Cl)=CC=32)cc1

- photoluminescence quantum yield (in CO): 0.15
Structure (SMILES): CC1(C)C(/C=C/C2=C(Oc3ccc(CCN=C=S)cc3I)C(=C/C=C3/N(CCCS(=O)(=O)[O-])c4ccccc4C3(C)C)/CCC2)=[N+](CCCS(=O)(=O)[O-])c2ccccc21

- photoluminescence quantum yield (in ClCCl): 0.38
Structure (SMILES): CCCCN(CCCC)c1ccc(C#Cc2cc(C#Cc3ccc(N(CCCC)CCCC)cc3)c(C#Cc3ccc(C(F)(F)F)cc3)cc2C#Cc2ccc(C(F)(F)F)cc2)cc1

- photoluminescence quantum yield (in CCO): 0.34
Structure (SMILES): CCOC(=O)c1cc(C(=O)OCC)c2cc(NC(=O)C(F)(F)F)ccc2n1

- photoluminescence quantum yield (in CO): 0.008
Structure (SMILES): N#Cc1c(-n2nnc3ccc(Cl)cc32)n([C@H]2C[C@H](O)[C@@H](CO)O2)c2ncnc(N)c12

- photoluminescence quantum yield (in ClC(Cl)Cl): 0.28
Structure (SMILES): O=C1[C@@H]2[C@H](C(=O)N1c1cccc3cc4ccccc4cc13)[C@H]1C[C@@H]2c2c1c(-c1ccccc1)c1ccccc1c2-c1ccccc1

- photoluminescence quantum yield (in O): 0.72
Structure (SMILES): CCn1c(-c2ccc(-c3ccc(-c4ccc(-c5n(CC)c6cc(C)ccc6[n+]5CC)cc4)cc3)cc2)[n+](CC)c2ccc(C)cc21

- photoluminescence quantum yield (in ClC(Cl)Cl): 0.15
Structure (SMILES): CCCCCCN1C(=O)c2cccc3c(-c4ccc(-c5ccc6c7c(cccc57)C(=O)N(CCCCCC)C6=O)s4)ccc(c23)C1=O

- photoluminescence quantum yield (in CC#N): 0.02
Structure (SMILES): O=C(O)c1ccccc1-c1nc(-c2ccccc2)c2ccccn12

- photoluminescence quantum yield (in CC#N): 0.242
- photoluminescence quantum yield (in CO): 0.166
- photoluminescence quantum yield (in ClCCl): 0.685
- photoluminescence quantum yield (in O): 0.041
Structure (SMILES): CN(C)c1ccc2c3c(c(=O)oc2c1)C=c1cc2c(cc1O3)=[N+](CCC(=O)O)CCC2

- photoluminescence quantum yield (in O): 0.34
Structure (SMILES): Fc1ccc2cc3cccc[n+]3cc2c1

- photoluminescence quantum yield (in CS(C)=O): 0.08
Structure (SMILES): N#CC1=C(N)n2c(=O)c3ccccc3c(=O)n2C1c1cccs1 (centres undefined)

- photoluminescence quantum yield (in ClCCl): 1
Structure (SMILES): CC(C)(C)c1ccc(-n2c(-c3ccc(-c4ccc(N(c5ccccc5)c5ccccc5)cc4)cc3)nc3c4ccccc4c4ccccc4c32)cc1

Structure (SMILES): COc1ccc(C(=O)NN2C3=C(CC4=C2CCCC4=O)C(=O)CCC3)cc1
- photoluminescence quantum yield (in CC#N): 0.59
- photoluminescence quantum yield (in CC(C)=O): 0.48
- photoluminescence quantum yield (in CCCCCO): 0.6
- photoluminescence quantum yield (in CO): 0.32
- photoluminescence quantum yield (in ClC(Cl)Cl): 0.57
- photoluminescence quantum yield (in ClCCl): 0.57

Structure (SMILES): COc1ccc2c(c1)c1c(c3cc(OC)ccc32)=[N+]2C(=C(c3c(C)cc(C)cc3C)c3cc4c5cc(OC)ccc5c5ccc(OC)cc5c4n3[B-]2(F)F)C=1
- photoluminescence quantum yield (in C1CCCCC1): 0.08
- photoluminescence quantum yield (in C1CCOC1): 0.001
- photoluminescence quantum yield (in CC#N): 0.01
- photoluminescence quantum yield (in Cc1ccccc1): 0.001
- photoluminescence quantum yield (in ClCCl): 0.001

- photoluminescence quantum yield (in ClCCl): 0.3
Structure (SMILES): Cc1ccc(C2=Nc3cccc4[n+]3[B-](F)(O2)OC(c2ccc(C)cc2)=N4)cc1

Structure (SMILES): CCn1c2ccccc2c2cc(-c3cc(-c4ccc5c(c4)c4ccccc4n5CC)ncn3)ccc21
- photoluminescence quantum yield (in C1CCOC1): 0.44
- photoluminescence quantum yield (in CCOC(C)=O): 0.8
- photoluminescence quantum yield (in CN(C)C=O): 0.76
- photoluminescence quantum yield (in Cc1ccccc1): 0.73
- photoluminescence quantum yield (in ClCCl): 0.75

- photoluminescence quantum yield (in CC#N): 0.14
- photoluminescence quantum yield (in CCCCOCCCC): 0.19
- photoluminescence quantum yield (in CO): 0.17
Structure (SMILES): Nc1cc2ccc3cccc4ccc(c1)c2c34

- photoluminescence quantum yield (in ClC(Cl)Cl): 0.47
Structure (SMILES): Fc1cccc(C2=Cc3ccc4ccccc4[n+]3[B-](F)(F)O2)c1

Structure (SMILES): Cn1cccc1-c1cc(C#N)ccc1C#N
- photoluminescence quantum yield (in C1CCOC1): 0.139
- photoluminescence quantum yield (in CC#N): 0.024
- photoluminescence quantum yield (in CCCCCC): 0.378
- photoluminescence quantum yield (in CCCCOCCCC): 0.281
- photoluminescence quantum yield (in CCOCC): 0.206

- photoluminescence quantum yield (in C1COCCO1): 0.033
Structure (SMILES): CC(C)CN1C(=O)/C(=C/c2ccc([N+](=O)[O-])cc2)C=C1c1ccccc1

- photoluminescence quantum yield (in ClC(Cl)Cl): 0.31
Structure (SMILES): CCCCN1C(=O)c2cc(Br)c3c4c(Br)cc5c6c(cc(Br)c(c7c(Br)cc(c2c37)C1=O)c64)C(=O)N(CCCC)C5=O

- photoluminescence quantum yield (in ClC(Cl)Cl): 0.74
Structure (SMILES): Cc1c2c(c(C)c3ccccc13)C1=C2C=CC2Nc3ccccc3NC12 (centres undefined)

Structure (SMILES): CC(C)(C)c1ccc(-c2nc3ccccc3nc2-c2cc(-c3nc4ccccc4nc3-c3ccc(C(C)(C)C)cc3)cc(-n3c4ccccc4c4ccccc43)c2)cc1
- photoluminescence quantum yield (in Cc1ccccc1): 0.35

- photoluminescence quantum yield (in CN(C)C=O): 0.021
- photoluminescence quantum yield (in ClC(Cl)Cl): 0.026
Structure (SMILES): CCCCCCOc1ccc(N(c2ccc(OCCCCCC)cc2)c2ccc(-c3sc(-c4ccc(N(c5ccc(OCCCCCC)cc5)c5ccc(OCCCCCC)cc5)cc4)c4nc(-c5ccc(C(=O)OC)cc5)c(-c5ccc(C(=O)OC)cc5)nc34)cc2)cc1

- photoluminescence quantum yield (in CC#N): 0.06
- photoluminescence quantum yield (in ClCCl): 0.21
Structure (SMILES): CN(C)c1ccc(/C=C/c2ncc3ccccc3n2)cc1

Structure (SMILES): Cc1cc(C(F)(F)F)nc2c1ccc1nc(-c3ccc(F)c(F)c3)cn12
- photoluminescence quantum yield (in CC#N): 0.84
- photoluminescence quantum yield (in CCCCOC(C)=O): 0.78
- photoluminescence quantum yield (in CO): 0.83
- photoluminescence quantum yield (in ClC(Cl)Cl): 0.96

Structure (SMILES): N#Cc1cc(-c2ccc(N3c4ccccc4Oc4ccccc43)cc2)c(-c2ccc(N3c4ccccc4Oc4ccccc43)cc2)cc1C#N
- photoluminescence quantum yield (in Cc1ccccc1): 0.42
- photoluminescence quantum yield (in c1cc(-c2cccc(-n3c4ccccc4c4ccccc43)c2)cc(-n2c3ccccc3c3ccccc32)c1): 0.77
